In PubChem BioAssay AID256 (DTP/NCI, 2004):
“And” between values parts separate entries of the source, which are not always exact repeats. Equal values may be shown once. Toxic doses and inconclusive results are not listed. How the source made its calls: active means survival T/C of 150% or more; inactive means T/C below 125% in these data.

Tested on: CD2F1 mice, L1210 leukemia ip, survival T/C
Assay: NCI In Vivo Anticancer Drug Screen. Data for tumor model L1210 Leukemia (intraperitoneal) in CD2F1 (CDF1) mice
Settings: endpoint: mean survival time, vehicle: saline with Tween-80, higher = longer survival
In short: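 Read-out first: treated-group measurement over vehicle-control measurement, expressed as a ratio. Animals bore a transplanted tumor line and were dosed with compound or vehicle.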

[1] = dose: 100.0 mg/kg/injection, schedule: Q04DX002 (ip)
[2] = dose: 200.0 mg/kg/injection, schedule: Q04DX002 (ip)

Measured: T/C

Cc1cc([N+](=O)[O-])ccc1NC(=S)NC(=O)COc1ccccc1
inactive: dose: 100.0 mg/kg/injection, schedule: Q01DX001 (ip) 95 % of control | dose: 100.0 mg/kg/injection, schedule: Q01DX009 (ip) 93 % of control and 102 % of control | [1] 95 % of control | dose: 100.0 mg/kg/injection, schedule: Q04DX003 (ip) 98 % of control | dose: 200.0 mg/kg/injection, schedule: Q01DX001 (ip) 89 % of control | dose: 200.0 mg/kg/injection, schedule: Q01DX009 (ip) 93 % of control | [2] 91 % of control | dose: 200.0 mg/kg/injection, schedule: Q04DX003 (ip) 97 % of control | dose: 400.0 mg/kg/injection, schedule: Q01DX001 (ip) 87 % of control | dose: 400.0 mg/kg/injection, schedule: Q01DX009 (ip) 92 % of control | dose: 400.0 mg/kg/injection, schedule: Q04DX003 (ip) 93 % of control

CCCCN(CNC(C)=O)N=O
inactive: [1] 95 % of control | [2] 88 % of control | dose: 400.0 mg/kg/injection, schedule: Q04DX002 (ip) 100 % of control
